Laboratory results from patent US9115148B2, “Spirocyclic derivatives as histone deacetylase inhibitors” (DAC S.R.L., priority 2008, dated 2015).
pIC50: −log10 of the molar value.

Legend:
HCT-116 cells = assay: Cell growth, CellTiter-Glo Luminescent Cell Viability Assay, HCT-116; type: cell-based; conditions: Homo sapiens, HCT116 cells, 72 h incubation, read-out: IC50 antiproliferative assay HCT116
Source text: (§1) CellTiter-Glo® Luminescent Cell Viability Assay (Promega) is a homogeneous method of determining the number of viable cells in culture based on quantitation of the present ATP, which indicates the presence of metabolically active cells. The homogeneous assay procedure involves addition of a single reagent (CellTiter-Glo® Reagent) directly to the cells, which leads to cell lysis and generation of a luminescent signal proportional to the amount of the ATP and the number of cells present in culture. The assay relies on the properties of a proprietary thermostable luciferase (Ultra-Glo® recombinant luciferase), which generates a luminescent signal.
(§2) K562, A549 and HCT-116 cells, in exponential growth, were incubated for 72 h with different concentrations of the inhibitors. After 72 h, a volume of CellTiter-Glo® Reagent equal to the volume of cell culture medium was added. The content was mixed for 2 min to induce cell lysis. The luminescence was recorded after further 10 min at RT in order to obtain a stabilized luminescent signal.
(§3) The IC50 was calculated using GraphPad Software.
(§4) IC50 results were allocated to one of 3 ranges as follows: Range A: IC50≦1.0 μM; Range B: from 1.0 to 3.0 μM; Range C: IC50≧3.0 μM.

K562 cells = assay: Cell growth, CellTiter-Glo Luminescent Cell Viability Assay, K562; type: cell-based; conditions: Homo sapiens, 72 h incubation, read-out: IC50 antiproliferative assay K562
Source text: as §1, §2, §3, §4

A549 cells = assay: Cell growth, CellTiter-Glo Luminescent Cell Viability Assay, A549; type: cell-based; conditions: Homo sapiens, 72 h incubation, read-out: IC50 antiproliferative assay A549
Source text: as §1, §2, §3, §4

[1] = tested on: HDAC (nuclear fraction of Hela cells); assay: Assay of enzyme inhibition of HDAC (BIOMOL Kit); type: biochemical; conditions: substrate 200 μM, 15 min at RT
Description: 2.2 Assay of Enzyme Inhibition of HDAC
The in-vitro activity of HDAC inhibitors was assayed using a BIOMOL Kit, according to the instructions from the manufacturer (Biomolecular Research Laborator). 15 μl of 30× diluted nuclear fraction of Hela cells, was diluted to 50 μl with the assay buffer containing the HDAC inhibitor and the substrate (lysine with acetylated amino group on the side chain) at a concentration of 200 μM. The samples were incubated for 15 min at RT and then exposed to a developer (10 min at RT). In this last step a fluorophore was produced, whose fluorescence was measured using an excitation wavelength of 355 nm and an emission at 460 nm. The IC50 was calculated using GraphPad Software.

pIC50 (HCT-116 cells) | pIC50 (K562 cells) | pIC50 (A549 cells) | pIC50 [1] | Compound
≤ 5.52 | ≤ 5.52 | ≤ 5.52 | < 6.00 | O=C(/C=C/c1ccc2c(c1)C=CC1(CCN(Cc3ccccc3)CC1)O2)NO [Example 15, (E)-3-{1′-Benzyl-spiro[chromene-2,4′-piperidine]-6-yl}-N-hydroxy-acrylamide]
5.52 to 6.00 | ≥ 6.00 | 5.52 to 6.00 | 6.00 to 7.00 | O=C(/C=C/c1ccc2c(c1)C(=O)CC1(CCN(Cc3cccc(Cl)c3)CC1)O2)NO [Example 38, (E)-3-{1′-(3-Chloro-benzyl)-4-oxo-spiro[chromane-2,4′-piperidine]-6-yl}-N-hydroxy-acrylamide]
≥ 6.00 | 5.52 to 6.00 | 5.52 to 6.00 | > 7.00 | O=C(/C=C/c1ccc2c(c1)/C(=N/O)CC1(CCN(Cc3ccccc3)CC1)O2)NO [Example 19, (E)-3-{1′-Benzyl-4-hydroxyimino-spiro[chromane-2,4′-piperidine]-6-yl}-N-hydroxy-acrylamide]
≥ 6.00 | ≥ 6.00 | 5.52 to 6.00 | 6.00 to 7.00 | CN1CCC2(CC1)CC(=O)c1cc(/C=C/C(=O)NO)ccc1O2 [Example 5, (E)-3-{1′-Methyl-4-oxo-spiro[chromane-2,4′-piperidine]-6-yl}-N-hydroxy-acrylamide]
5.52 to 6.00 | ≥ 6.00 | 5.52 to 6.00 | 6.00 to 7.00 | O=C(/C=C/c1ccc2c(c1)C(=O)CC1(CCN(c3ccccc3)CC1)O2)NO [Example 7, (E)-3-{1′-Phenyl-4-oxo-spiro[chromane-2,4′-piperidine]-6-yl}-N-hydroxy-acrylamide]
≥ 6.00 | ≥ 6.00 | ≥ 6.00 | 6.00 to 7.00 | O=C(/C=C/c1ccc2c(c1)C(=O)CC1(CCN(CCc3ccccc3)CC1)O2)NO [Example 55, (E)-3-{1′-(2-Phenyl-ethyl)-4-oxo-spiro[chromane-2,4′-piperidine]-6-yl}-N-hydroxy-acrylamide]
≥ 6.00 | ≥ 6.00 | ≥ 6.00 | 6.00 to 7.00 | COc1cccc(CCN2CCC3(CC2)CC(=O)c2cc(/C=C/C(=O)NO)ccc2O3)c1 [Example 60, (E)-3-{1′-[2-(3-Methoxy-phenyl)-ethyl]-4-oxo-spiro[chromane-2,4′-piperidine]-6-yl}-N-hydroxy-acrylamide]
5.52 to 6.00 | 5.52 to 6.00 | ≤ 5.52 | 6.00 to 7.00 | CN1CCC2(CC1)Oc1ccc(/C=C/C(=O)NO)cc1C(=O)N2C [Example 78, (E)-3-{1′-Methyl-3,4-dihydro-3-methyl-4-oxo-spiro[2H-(1,3)-benzoxazine-2,4′-piperidin]-6-yl}-N-hydroxy-acrylamide]
≥ 6.00 | ≥ 6.00 | 5.52 to 6.00 | 6.00 to 7.00 | Cc1ccc(CN2CCC3(CC2)CC(=O)c2cc(/C=C/C(=O)NO)ccc2O3)cc1 [Example 30, (E)-3-{1′-(4-Methyl-benzyl)-4-oxo-spiro[chromane-2,4′-piperidine]-6-yl}-N-hydroxy-acrylamide]
≥ 6.00 | ≥ 6.00 | ≥ 6.00 | 6.00 to 7.00 | O=C(/C=C/c1ccc2c(c1)C(=O)CC1(CCN(CCc3ccccc3F)CC1)O2)NO [Example 59, (E)-3-{1′-[2-(2-Fluoro-phenyl)-ethyl]-4-oxo-spiro[chromane-2,4′-piperidine]-6-yl}-N-hydroxy-acrylamide]
≥ 6.00 | ≥ 6.00 | ≥ 6.00 | 6.00 to 7.00 | COc1ccc(CN2CCC3(CC2)CC(=O)c2cc(/C=C/C(=O)NO)ccc2O3)cc1 [Example 33, (E)-3-{1′-(4-Methoxy-benzyl)-4-oxo-spiro[chromane-2,4′-piperidine]-6-yl}-N-hydroxy-acrylamide]
≤ 5.52 | ≤ 5.52 | ≤ 5.52 | < 6.00 | O=C(/C=C/c1ccc2c(c1)C(=O)C1(CCN(C(=O)c3ccccc3)CC1)O2)NO [Example 23, (E)-3-{1′-Benzoyl-3-oxo-spiro[benzofuran-2(3H), 4′-piperidin]-5-yl}-N-hydroxy-acrylamide]
5.52 to 6.00 | 5.52 to 6.00 | ≤ 5.52 | 6.00 to 7.00 | O=C(/C=C/c1ccc2c(c1)C(=O)CC1(CCN(C(=O)Nc3ccccc3)CC1)O2)NO [Example 48, (E)-3-{1′-Phenylcarbamoyl-4-oxo-spiro[chromane-2,4′-piperidine]-6-yl}-N-hydroxy-acrylamide]
≥ 6.00 | ≥ 6.00 | ≥ 6.00 | > 7.00 | CCN1CCC2(CC1)CC(=O)c1cc(/C=C/C(=O)NO)ccc1O2 [Example 68, (E)-3-{1′-Ethyl-4-oxo-spiro[chromane-2,4′-piperidine]-6-yl}-N-hydroxy-acrylamide]
≥ 6.00 | ≥ 6.00 | ≥ 6.00 | 6.00 to 7.00 | O=C(/C=C/c1ccc2c(c1)C(=O)CC1(CCN(Cc3ccccc3)CC1)O2)NO [Example 2, (E)-3-{1′-Benzyl-4-oxo-spiro[chromane-2,4′-piperidine]-6-yl}-N-hydroxy-acrylamide]
5.52 to 6.00 | 5.52 to 6.00 | ≤ 5.52 | 6.00 to 7.00 | O=C(/C=C/c1ccc2c(c1)C(=O)N(Cc1ccccc1)C1(CCN(Cc3ccc(F)cc3)CC1)O2)NO [Example 83, (E)-3-{1′-(4-Fluoro-benzyl)-3,4-dihydro-3-benzyl-4-oxo-spiro[2H-(1,3)-benzoxazine-2,4′-piperidin]-6-yl}-N-hydroxy-acrylamide]
≤ 5.52 | ≤ 5.52 | ≤ 5.52 | 6.00 to 7.00 | O=C(/C=C/c1ccc2c(c1)C(=O)NC1(CCN(Cc3ccccc3)CC1)N2)NO [Example 26, (E)-3-{1-Benzyl-3′,4′-dihydro-4′-oxo-spiro[piperidine-4,2′(1′H)-quinazoline]-6′-yl}-N-hydroxy-acrylamide]
≥ 6.00 | ≥ 6.00 | 5.52 to 6.00 | 6.00 to 7.00 | Cc1cccc(CN2CCC3(CC2)CC(=O)c2cc(/C=C/C(=O)NO)ccc2O3)c1 [Example 29, (E)-3-{1′-(3-Methyl-benzyl)-4-oxo-spiro[chromane-2,4′-piperidine]-6-yl}-N-hydroxy-acrylamide]
≤ 5.52 | 5.52 to 6.00 | ≤ 5.52 | < 6.00 | CCOC(=O)N1CCC2(CC1)Oc1ccc(/C=C/C(=O)NO)cc1C2=O [Example 24, (E)-3-{1′-Ethyloxycarbonyl-3-oxo-spiro[benzofuran-2(3H), 4′-piperidin]-5-yl}-N-hydroxy-acrylamide]
≥ 6.00 | ≥ 6.00 | ≥ 6.00 | > 7.00 | O=C(/C=C/c1ccc2c(c1)C(=O)CC1(CCN(Cc3c[nH]c4ccccc34)CC1)O2)NO [Example 50]
5.52 to 6.00 | ≤ 5.52 | ≤ 5.52 | 6.00 to 7.00 | O=C(/C=C/c1ccc2c(c1)C(=O)CC1(CCN(c3ncccn3)CC1)O2)NO [Example 27, (E)-3-{1′-Pyrimidin-2-yl-4-oxo-spiro[chromane-2,4′-piperidine]-6-yl}-N-hydroxy-acrylamide]
≤ 5.52 | ≤ 5.52 | ≤ 5.52 | 6.00 to 7.00 | O=C(/C=C/c1ccc2c(c1)OC1(CCN(C(=O)c3ccccc3)CC1)CC2=O)NO [Example 11, (E)-3-{1′-Benzoyl-4-oxo-spiro[chromane-2,4′-piperidine]-7-yl}-N-hydroxy-acrylamide]
≥ 6.00 | ≥ 6.00 | ≥ 6.00 | 6.00 to 7.00 | CN1CCC2(CC1)Oc1ccc(/C=C/C(=O)NO)cc1C(=O)N2Cc1ccccc1 [Example 81, (E)-3-{1′-Methyl-3,4-dihydro-3-benzyl-4-oxo-spiro[2H-(1,3)-benzoxazine-2,4′-piperidin]-6-yl}-N-hydroxy-acrylamide]
≤ 5.52 | ≤ 5.52 | ≤ 5.52 | < 6.00 | CC(=O)N1CCC2(CC1)CC(=O)c1ccc(/C=C/C(=O)NO)cc1O2 [Example 10, (E)-3-{1′-Acetyl-4-oxo-spiro[chromane-2,4′-piperidine]-7-yl}-N-hydroxy-acrylamide]
≤ 5.52 | ≤ 5.52 | ≤ 5.52 | 6.00 to 7.00 | O=C(/C=C/c1ccc2c(c1)C(=O)C1(CCN(Cc3ccccc3)CC1)O2)NO [Example 21, (E)-3-{1′-Benzyl-3-oxo-spiro[benzofuran-2(3H), 4′-piperidin]-5-yl}-N-hydroxy-acrylamide]
